Data reported in US11760752B2, “Carboxylic acid, acyl sulfonamide and acyl sulfamide-derivatized bicyclic aza-heteroaromatics as selective Mcl-1 inhibitors and as dual Mcl-1/Bcl-2 inhibitors” (University of Maryland, Baltimore, priority 2019, dated 2023).
Where two headings read alike, the source gives them in different places.

Assays:
MCL-1 = MCL-1 (Homo sapiens (Human), UniProt Q07820); assay: Fluorescence polarization competition assay (FPCA), displacement of FITC-Bak from MCL-1; assay type: binding
Sequence of MCL-1 (Q07820 172-327): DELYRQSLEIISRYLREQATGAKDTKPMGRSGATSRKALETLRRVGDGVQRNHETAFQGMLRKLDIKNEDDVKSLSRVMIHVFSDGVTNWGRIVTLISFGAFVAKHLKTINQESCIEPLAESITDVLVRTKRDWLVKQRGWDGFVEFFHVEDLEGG

BCL-XL [1] = molecular target: T1, BCL-XL (Homo sapiens (Human), UniProt Q07817); assay: Fluorescence polarization competition assay (FPCA), displacement of FITC-Bak from BCL-XL; assay type: binding
Method: (§1) These values were determined from a fluorescence polarization competition assay involving a fluorescently labeled peptide (BAK) bound to the desired Bcl-2 anti-apoptotic protein. […] These inhibition constants are the concentrations at which the indazole derivatives can displace 50% of BAK from the indicated Bcl-2 anti-apoptotic proteins.
(§2) The concentrated peptide stocks were prepared in DMSO and the concentration of the peptide was determined in water at pH 8.0 using the extinction coefficient for amide-linked FITC of λ494=68,000 cm^−1M^−1.
(§3) The fluorescence polarization assays were performed in 96 well polypropylene F-bottom black microplates (Greiner Bio-One) with a final volume of 100 μL.
(§4) The fluorescence polarization competition assays were setup using a Biomek FXP Automated Liquid Handling System. […] The IC50 values were then converted to Ki values using an equation derived by Nikolovska-Coleska et al. All inhibitors were tested in triplicate.
Target sequence in this assay (Q07817 1-212): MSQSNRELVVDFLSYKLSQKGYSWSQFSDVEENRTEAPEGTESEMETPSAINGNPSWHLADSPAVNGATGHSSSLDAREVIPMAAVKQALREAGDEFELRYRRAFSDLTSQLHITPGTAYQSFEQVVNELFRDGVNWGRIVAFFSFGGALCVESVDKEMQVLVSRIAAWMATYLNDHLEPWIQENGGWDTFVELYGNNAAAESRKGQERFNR

BCL-2 = BCL-2 (Homo sapiens (Human), UniProt P10415); assay: Fluorescence polarization competition assay (FPCA), displacement of FITC-Bak from BCL-2; assay type: binding
Sequence of BCL-2 (P10415 1-211): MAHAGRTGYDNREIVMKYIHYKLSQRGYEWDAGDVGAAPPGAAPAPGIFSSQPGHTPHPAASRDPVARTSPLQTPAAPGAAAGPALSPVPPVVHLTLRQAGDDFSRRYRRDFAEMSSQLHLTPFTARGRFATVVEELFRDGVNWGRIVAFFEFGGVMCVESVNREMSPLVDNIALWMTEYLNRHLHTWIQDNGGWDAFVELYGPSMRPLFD
Method: as §1, §2, §3, §4

BCL-XL [2] = molecular target: T1, BCL-XL; conditions: relative to BCL-2; cited from earlier work
Target sequence in this assay (Q07817 whole entry, species assumed): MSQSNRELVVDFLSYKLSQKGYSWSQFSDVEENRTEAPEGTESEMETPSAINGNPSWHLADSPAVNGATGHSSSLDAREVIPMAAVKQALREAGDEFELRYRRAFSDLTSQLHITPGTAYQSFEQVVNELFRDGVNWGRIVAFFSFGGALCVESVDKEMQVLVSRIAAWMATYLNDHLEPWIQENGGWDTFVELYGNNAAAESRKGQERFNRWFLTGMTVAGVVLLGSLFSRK

[3] = Table 3, FITC-Bak peptide displacement, read-out: MCL-1 Affinity Ki
[4] = Table 3, FITC-Bak peptide displacement, read-out: BCL-XL Affinity Ki
[5] = Table 3, FITC-Bak peptide displacement, read-out: BCL-2 Affinity Ki
[6] = Table 5, heterocyclic core SAR, read-out: MCL-1 Ki
[7] = Table 8, N-1-alkylated isomers, read-out: BCL-2 Ki

| Compound | Ki (MCL-1; [3]) [nM] | Ki (BCL-XL [1]; [4]) [nM] | Ki (BCL-2; [5]) [nM] | further results |
| --- | --- | --- | --- | --- |
| Cc1cc(Oc2ccc(Cn3nc(C(=O)NS(=O)(=O)c4ccc([N+](=O)[O-])c(NCc5ccco5)c4)c4cc(Cl)ccc43)cc2)cc(C)c1Cl [CG-1-019] | 1140 ± 50 | 325 ± 50 | 384 ± 30 | – |
| CCN1CCN(c2cc(S(=O)(=O)NC(=O)c3nn(Cc4ccc(Oc5cc(C)c(Cl)c(C)c5)cc4)c4ccc(Cl)cc34)ccc2[N+](=O)[O-])CC1 [CG-1-023] | 12400 ± 370 | – | – | Ki (BCL-2; read-out: BCL-2 Affinity Ki): 74300 ± 11500 nM |
| Cc1cc(Oc2ccc(Cn3nc(C(=O)NS(=O)(=O)c4ccc(N5CCOCC5)c([N+](=O)[O-])c4)c4cc(Cl)ccc43)cc2)cc(C)c1Cl [NB-1-086] | 320 ± 10 | – | – | Ki (BCL-XL [1]; read-out: BCL-XL Affinity Ki): 840 ± 228 nM; Ki (BCL-2; read-out: BCL-2 Affinity Ki): 569 ± 40 nM |
| Cc1cc(Oc2ccc(Cn3nc(C(=O)O)c4cc(Cl)ccc43)cc2)cc(C)c1Cl [NB-1-070] | 910 ± 50 | – | – | Ki (BCL-XL [1]; read-out: BCL-XL Affinity Ki): 2010 ± 350 nM; Ki (BCL-2; read-out: BCL-2 Affinity Ki): 1040 ± 190 nM |
| Cc1cc(OCCCn2nc(C(=O)NS(=O)(=O)c3ccc(NCC4CCN(C)CC4)c([N+](=O)[O-])c3)c3cc(Cl)ccc32)cc(C)c1Cl [BD-3-190] | – | – | – | Ki (BCL-2; read-out: BCL-2 Affinity Ki): 8930 ± 290 nM |
| Cc1cc(Oc2ccc(Cn3nc(C(=O)NS(=O)(=O)c4ccc([N+](=O)[O-])c(N5CCOCC5)c4)c4cc(Cl)ccc43)cc2)cc(C)c1Cl [CG-1-016] | 370 ± 20 | 436 ± 70 | 451 ± 40 | – |
| Cc1cc(OCCn2nc3ccc(Cl)cc3c2C(=O)O)cc(C)c1Cl [compound 11, 5-chloro-2-(2-(4-chloro-3,5-dimethylphenoxy)ethyl)-2H-indazole-3-carboxylic acid] | – | – | – | Ki (MCL-1; [6]): > 10000 nM; Ki (MCL-1; read-out: MCL-1 Ki): > 10000 nM |
| Cc1cc(OCCCn2c(C(=O)O)nc3ccccc32)cc(C)c1Cl [compound 5, 1-(3-(4-chloro-3,5-dimethylphenoxy)propyl)-1H-benzo[d]imidazole-2-carboxylic acid] | – | – | – | Ki (MCL-1; [6]): > 10000 nM; Ki (MCL-1; read-out: MCL-1 Ki): > 10000 nM |
| Cc1cc(Oc2ccc(Cn3nc(C(=O)NS(=O)(=O)c4ccc(Cl)cc4)c4cc(Cl)ccc43)cc2)cc(C)c1Cl [NB-1-084] | 280 ± 10 | 840 ± 228 | 1090 ± 450 | – |
| Cc1cc(Oc2ccc(Cn3nc(C(=O)O)c4cc(Cl)ccc43)cc2)cc(C)c1Cl [compound 50, 5-chloro-1-(4-(4-chloro-3,5-dimethylphenoxy)benzyl)-1H-indazole-3-carboxylic acid] | – | – | – | Ki (MCL-1; Table 8, N-1-alkylated isomers, read-out: MCL-1 Ki): 1580 ± 360 nM |
| Cc1cc(Oc2ccc(Cn3nc4cc(Cl)ccc4c3C(=O)O)cc2)cc(C)c1Cl [compound 49, 6-chloro-2-(4-(4-chloro-3,5-dimethylphenoxy)benzyl)-2H-indazole-3-carboxylic acid] | – | – | – | Ki (MCL-1; [6]): 1760 ± 550 nM; Ki (MCL-1; read-out: MCL-1 Ki): 1760 ± 550 nM |
| Cc1cc(Oc2ccc(Cn3nc(C(=O)NS(=O)(=O)c4ccc(NCCN5CCOCC5)c([N+](=O)[O-])c4)c4cc(Cl)ccc43)cc2)cc(C)c1Cl [NB-1-088] | 750 ± 60 | – | – | Ki (BCL-2; read-out: BCL-2 Affinity Ki): 738 ± 190 nM |
| Cc1cc(OCCCn2nc(C(=O)NS(=O)(=O)c3ccc(NCC4CCCO4)c([N+](=O)[O-])c3)c3cc(Cl)ccc32)cc(C)c1Cl (stereo not drawn) [BD-3-184] | 690 ± 30 | 840 ± 140 | 1170 ± 160 | – |
| Cc1cc(OCCCn2nc(C(=O)NS(=O)(=O)c3ccc(NCc4ccco4)c([N+](=O)[O-])c3)c3cc(Cl)ccc32)cc(C)c1Cl [BD-3-180] | 480 ± 30 | 597 ± 180 | 572 ± 50 | – |
| Cc1cc(Oc2ccc(Cn3nc(C(=O)NS(=O)(=O)c4ccc(N5CCOCC5)c([N+](=O)[O-])c4)c4cc(Cl)ccc43)cc2)cc(C)c1Cl [compound 51, 5-chloro-1-(4-(4-chloro-3,5-dimethylphenoxy)benzyl)-N-((4-morpholino-3-nitrophenyl)sulfonyl)-1H-indazole-3-carboxamide] | – | – | – | Ki (MCL-1): 2220 ± 200 nM; BCL-XL affinity (in words) (BCL-XL [1]): no affinity; BCL-2 binding affinity (in words) (BCL-2): within the nanomolar range; Ki (BCL-2; [7]): 620 ± 120 nM |
| Cc1cc(OCCCn2nc(C(=O)O)c3cc(Cl)ccc32)cc(C)c1Cl [BD-3-173] | 5800 ± 360 | – | – | Ki (BCL-2; read-out: BCL-2 Affinity Ki): 5790 ± 620 nM |
| Cc1cc(OCCCn2nc3ccc(Cl)cc3c2C(=O)O)cc(C)c1Cl [compound 10, 5-chloro-2-(3-(4-chloro-3,5-dimethylphenoxy)propyl)-2H-indazole-3-carboxylic acid] | – | – | – | Ki (MCL-1; [6]): > 10000 nM; Ki (MCL-1; read-out: MCL-1 Ki): > 10000 nM |
| Cc1cc(OCCCn2nc(C(=O)NS(=O)(=O)c3ccc(NCc4cccnc4)c([N+](=O)[O-])c3)c3cc(Cl)ccc32)cc(C)c1Cl [BD-3-181] | 840 ± 50 | 574 ± 110 | 694 ± 90 | – |
| Cc1cc(Oc2ccc(Cn3nc(C(=O)NS(=O)(=O)c4ccc(NCc5cccnc5)c([N+](=O)[O-])c4)c4cc(Cl)ccc43)cc2)cc(C)c1Cl [NB-1-087] | 520 ± 30 | – | – | Ki (BCL-XL [1]; read-out: BCL-XL Affinity Ki): 557 ± 80 nM; Ki (BCL-2; read-out: BCL-2 Affinity Ki): 611 ± 200 nM |
| Cc1cc(Oc2ccc(Cn3nc(C(=O)NS(=O)(=O)c4ccc([N+](=O)[O-])c(NCc5cccnc5)c4)c4cc(Cl)ccc43)cc2)cc(C)c1Cl [CG-1-018] | 480 ± 30 | 436 ± 70 | 384 ± 30 | – |
| Cc1cc(OCCCn2nc(C(=O)NS(=O)(=O)c3ccc(N4CCOCC4)c([N+](=O)[O-])c3)c3cc(Cl)ccc32)cc(C)c1Cl [BD-3-183] | 920 ± 30 | 1060 ± 340 | 868 ± 130 | – |
| Cc1cc(Oc2ccc(Cn3nc(C(=O)NS(=O)(=O)c4ccc(NCc5cccnc5)c([N+](=O)[O-])c4)c4cc(Cl)ccc43)cc2)cc(C)c1Cl [compound 52, 5-chloro-1-(4-(4-chloro-3,5-dimethylphenoxy)benzyl)-N-((3-nitro-4-((pyridin-3-ylmethyl)amino)phenyl)sulfonyl)-1H-indazole-3-carboxamide] | – | – | – | Ki (MCL-1): > 10000 nM; BCL-XL affinity (in words) (BCL-XL [1]): no affinity; BCL-2 binding affinity (in words) (BCL-2): within the nanomolar range; Ki (BCL-2; [7]): 690 ± 110 nM |
| CC1(C)CCC(CN2CCN(c3ccc(C(=O)NS(=O)(=O)c4ccc(NCC5CCOCC5)c([N+](=O)[O-])c4)c(Oc4cnc5[nH]ccc5c4)c3)CC2)=C(c2ccc(Cl)cc2)C1 [venetoclax, Venetoclax] | – | – | – | BCL-XL affinity, fold lower than BCL-2 (BCL-XL [2]): more than 100 fold |
| Cc1cc(OCCCc2c(C(=O)O)n(C)c3cc(Cl)ccc23)cc(C)c1Cl | – | – | – | Ki (BCL-XL [1]; Table 4, FPCA data for control compounds, read-out: BCL-XL Ki): 1200 ± 160 nM; Ki (BCL-2; Table 4, FPCA data for control compounds, read-out: BCL-2 Ki): > 10000 nM |
| Cc1cc(Oc2ccc(Cn3nc4ccc(Cl)cc4c3C(=O)O)cc2)cc(C)c1Cl [compound 12, 5-chloro-2-(4-(4-chloro-3,5-dimethylphenoxy)benzyl)-2H-indazole-3-carboxylic acid] | – | – | – | Ki (MCL-1; [6]): 2360 ± 290 nM; Ki (MCL-1; read-out: MCL-1 Ki): 2360 ± 290 nM; Ki (BCL-2; read-out: BCL-2 Ki): 1450 ± 75 nM |
| Cc1cc(Oc2ccc(Cn3nc(C(=O)NS(=O)(=O)c4ccc(NCc5ccco5)c([N+](=O)[O-])c4)c4cc(Cl)ccc43)cc2)cc(C)c1Cl [NB-1-089] | 260 ± 10 | 551 ± 70 | 266 ± 20 | – |
